Values belong to the compound of their own block, whether it stands above or below them.
Experiments:
NDUTT3 = biological target: T1, NDUTT3 (Tetrahymena thermophila, UniProt I7LUQ4); assay: cryo-EM structure; type: binding; details: co-purified native ligand
T1 construct: gene TTHERM_00268000; native matrix-arm subunit of complex I within supercomplex, digitonin
T1 sequence (I7LUQ4 1-311): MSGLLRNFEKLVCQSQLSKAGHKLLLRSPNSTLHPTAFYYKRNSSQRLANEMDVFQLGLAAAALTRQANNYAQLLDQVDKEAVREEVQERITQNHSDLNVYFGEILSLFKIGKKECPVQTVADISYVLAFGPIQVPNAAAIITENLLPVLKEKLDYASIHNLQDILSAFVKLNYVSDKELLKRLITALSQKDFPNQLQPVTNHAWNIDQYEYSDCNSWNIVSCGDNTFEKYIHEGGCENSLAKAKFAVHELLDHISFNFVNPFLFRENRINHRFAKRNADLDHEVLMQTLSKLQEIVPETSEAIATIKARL

NDUFA9 = biological target: T2, NDUFA9 (Tetrahymena thermophila, UniProt I7MLH2); assay: cryo-EM structure; type: binding; details: co-purified; close to the CI Q-tunnel
T2 construct: gene TTHERM_00557760; native subunit of complex I within supercomplex, digitonin
T2 sequence (I7MLH2 27-362): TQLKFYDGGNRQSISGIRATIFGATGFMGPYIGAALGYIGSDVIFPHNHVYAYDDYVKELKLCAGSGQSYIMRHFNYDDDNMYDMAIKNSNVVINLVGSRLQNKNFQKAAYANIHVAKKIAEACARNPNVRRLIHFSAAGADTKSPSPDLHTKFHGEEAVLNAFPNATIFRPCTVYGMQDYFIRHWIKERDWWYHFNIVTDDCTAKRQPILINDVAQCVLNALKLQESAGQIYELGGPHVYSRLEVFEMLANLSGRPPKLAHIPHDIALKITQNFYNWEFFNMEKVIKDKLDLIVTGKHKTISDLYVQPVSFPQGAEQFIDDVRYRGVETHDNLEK

COB (CIII2) = biological target: T3, COB (CIII2) (Tetrahymena thermophila, UniProt Q950Z1); assay: cryo-EM structure; type: binding; details: co-purified; Qi site near haem bH (or semiquinone); second site between the two haem bL
T3 construct: native; mitochondria-encoded subunit in complex III dimer within supercomplex, digitonin
T3 sequence (Q950Z1 1-426): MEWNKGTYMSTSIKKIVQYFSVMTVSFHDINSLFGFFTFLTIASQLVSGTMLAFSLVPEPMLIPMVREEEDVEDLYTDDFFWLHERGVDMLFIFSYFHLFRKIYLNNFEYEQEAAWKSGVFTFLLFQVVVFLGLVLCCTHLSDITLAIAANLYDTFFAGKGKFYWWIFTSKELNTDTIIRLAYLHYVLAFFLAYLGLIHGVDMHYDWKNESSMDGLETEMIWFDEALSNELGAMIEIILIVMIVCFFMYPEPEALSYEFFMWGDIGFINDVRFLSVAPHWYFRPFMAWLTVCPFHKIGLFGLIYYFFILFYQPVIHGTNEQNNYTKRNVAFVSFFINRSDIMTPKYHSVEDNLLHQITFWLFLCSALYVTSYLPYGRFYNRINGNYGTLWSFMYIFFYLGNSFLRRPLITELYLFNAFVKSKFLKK

SDHA (CII) = biological target: T4, SDHA (CII) (Tetrahymena thermophila, UniProt Q23DI3); assay: cryo-EM structure; type: binding; details: covalent
T4 construct: gene TTHERM_00047080; native complex II in I-II-III2-IV2 supercomplex from mitochondria, digitonin; with Succinate dehydrogenase [ubiquinone] iron-sulfur subunit, mitochondrial; Succinate dehydrogenase membrane anchor subunit SDHC; Succinate dehydrogenase membrane anchor subunit SDHD (mitochondria-encoded)
T4 sequence (Q23DI3 1-636): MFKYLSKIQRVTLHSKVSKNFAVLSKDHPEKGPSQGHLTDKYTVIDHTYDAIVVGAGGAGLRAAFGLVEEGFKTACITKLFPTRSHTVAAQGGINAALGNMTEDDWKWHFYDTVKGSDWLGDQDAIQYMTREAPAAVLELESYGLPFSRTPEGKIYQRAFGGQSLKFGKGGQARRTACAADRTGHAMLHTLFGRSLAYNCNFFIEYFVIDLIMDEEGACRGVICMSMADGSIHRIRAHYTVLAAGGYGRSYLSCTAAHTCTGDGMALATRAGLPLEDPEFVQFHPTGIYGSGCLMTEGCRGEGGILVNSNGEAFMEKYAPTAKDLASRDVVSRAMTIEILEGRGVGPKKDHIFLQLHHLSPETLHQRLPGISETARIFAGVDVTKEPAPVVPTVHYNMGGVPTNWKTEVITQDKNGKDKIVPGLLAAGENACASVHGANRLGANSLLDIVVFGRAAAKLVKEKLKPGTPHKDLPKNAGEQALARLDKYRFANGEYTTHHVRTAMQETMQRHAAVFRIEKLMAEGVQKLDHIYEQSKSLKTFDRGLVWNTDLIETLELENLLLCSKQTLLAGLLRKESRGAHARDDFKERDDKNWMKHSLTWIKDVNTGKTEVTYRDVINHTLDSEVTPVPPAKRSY

[1] = biological target: complex III monomer (cytochrome bc1) of Tetrahymena thermophila (Tetrahymena thermophila); assay: cryo-EM structure; single-particle cryo-EM of the native supercomplex co-purified from T. thermophila mitochondria; buffer D (25 mM HEPES-KOH pH 7.5, 25 mM KCl, 5 mM MgCl2, 0.1% w/v digitonin); 2.9 Å overall, masked refinements 2.6-3.0 Å
[2] = biological target: complex IV monomer (cytochrome c oxidase) of Tetrahymena thermophila (Tetrahymena thermophila) (UniProt Q950Y7); assay: as above

Compound: Nc1ncnc2c1ncn2[C@@H]1O[C@H](COP(=O)(O)OP(=O)(O)O)[C@@H](O)[C@H]1O [ADP]
cryo-EM structure (NDUTT3): subunits NDUTT1 with UDP and NDUTT3 with ADP

Compound: NC(=O)C1=CN([C@@H]2O[C@H](COP(=O)(O)OP(=O)(O)OC[C@H]3O[C@@H](n4cnc5c(N)ncnc54)[C@H](OP(=O)(O)O)[C@@H]3O)[C@@H](O)[C@H]2O)C=CC1 [NADPH]
cryo-EM structure (NDUFA9): NDUFA9 contains a bound NADPH molecule close to the CI Q-tunnel

Compound: COC1=C(OC)C(=O)C(C/C=C(\C)CC/C=C(\C)CC/C=C(\C)CC/C=C(\C)CC/C=C(\C)CC/C=C(\C)CC/C=C(\C)CCC=C(C)C)=C(C)C1=O [UQ, ubiquinone]
cryo-EM structure (COB (CIII2)): density for a bound (semi)-UQ was observed in the Qi site

Compound: Cc1cc2nc3c(=O)[nH]c(=O)nc-3n(C[C@H](O)[C@H](O)[C@H](O)COP(=O)(O)OP(=O)(O)OC[C@H]3O[C@@H](n4cnc5c(N)ncnc54)[C@H](O)[C@@H]3O)c2cc1C [flavin adenine dinucleotide]
cryo-EM structure (SDHA (CII)): SDHA and SDHB forms a conserved head region, containing both the covalently bound FAD

stoichiometry N [1]: 2
Compound: complex III monomer (cytochrome bc1) of Tetrahymena thermophila

stoichiometry N [2]: 2
Compound: complex IV monomer (cytochrome c oxidase) of Tetrahymena thermophila (from UniProt Q950Y7 1-453; Q950Y6 1-594)

— article PMC10060162, “Structural basis of mitochondrial membrane bending by the I–II–III2–IV2 supercomplex” (Nature, 2023)
